Test results published in patent US20060168675A1, “Novel polypetide having function of 7-keto-8-aminopelargonic acid synthase of plant and method for inducing growth inhibition and lethality by suppressing expression of the polypeptide” (GENOMINE, INC, priority 2002, published 2006).

Assays:
[1] = system: transgenic Arabidopsis thaliana comprising antisense construct of AtKAPAS gene; details: pots filled with sands containing 1 mM biotin; Basta treated 5 times; transformed seeds
Procedure: The pots were treated with Basta 5 times, and then investigated for the growth of Arabidopsis thaliana in every pot.

[2] = target: KAPA syntase of Bacillus sphaericus (Lysinibacillus sphaericus, UniProt P22806); details: read-out: Km value to pimeroyl CoA; KAPA synthase of Bacillus sphaericus; cited from earlier work
[3] = target: KAPA syntase of E. coli (Escherichia coli, UniProt P12998); details: KAPA synthase of E. coli; read-out: Km value to pimeroyl CoA; cited from earlier work
[4] = target: T1, protein expressed by AtKAPAS gene (KAPA synthase) (Arabidopsis thaliana, UniProt Q8GW43, DEL236-242/L243I); format: biochemical; details: substrate pimeroyl CoA, Lineweaver-Burk plot, 30° C., pH 7.5, 340 nm
T1 construct: contains 1410 bp size open reading frame encoding 469 amino acids; made in house; host or cells: E. coli BL21-Gold(DE) transformed with pCKAPA (AtKAPAS cDNA in pCAL-n)
Procedure: The enzyme activity of the protein was measured at 340 nm using a spectrophotometer (Backman DU series 60 spectrophotometer) adjusted at 30° C. according to a method of Alexeev et al.(Alexeev et al. J. Mol. Biol., 284:401-419, 1998). […] In every reaction solution, the concentration of the protein was 10 μM. L-alanine and pimeroyl CoA were also added into each reaction solution ([…]). Results were analyzed using the Soft-Pac Module kinetics software. Before the analysis, enzyme samples were dialyzed with 20 mM potassium phosphate buffer (pH 7.5) containing 100 μM PLP (pyridoxal 5′-phosphate) at 4° C. for 2 hours. The cuvette containing other substances but the purified protein was used as a control group for the measurement of the enzyme activity.
The changes of reaction speed according to substrate concentration were measured, and then represented by Lineweaver-Burkes plot (see FIG. 4).

T1 sequence (Q8GW43 other isoform, or with tags, fused parts or gaps DEL236-242/L243I): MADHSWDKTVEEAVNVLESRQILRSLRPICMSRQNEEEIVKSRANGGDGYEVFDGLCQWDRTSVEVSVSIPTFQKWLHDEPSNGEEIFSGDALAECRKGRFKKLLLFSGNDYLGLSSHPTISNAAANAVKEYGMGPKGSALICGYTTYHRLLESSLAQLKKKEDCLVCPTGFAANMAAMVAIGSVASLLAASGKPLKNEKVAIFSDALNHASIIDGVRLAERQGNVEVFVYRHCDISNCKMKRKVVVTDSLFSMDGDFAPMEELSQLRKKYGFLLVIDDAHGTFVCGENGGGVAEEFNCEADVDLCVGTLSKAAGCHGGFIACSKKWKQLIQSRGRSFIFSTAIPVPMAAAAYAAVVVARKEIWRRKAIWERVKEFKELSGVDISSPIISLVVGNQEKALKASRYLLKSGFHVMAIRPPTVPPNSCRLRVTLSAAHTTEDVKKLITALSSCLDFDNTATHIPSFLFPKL
Sequence of KAPA syntase of Bacillus sphaericus (P22806 whole entry): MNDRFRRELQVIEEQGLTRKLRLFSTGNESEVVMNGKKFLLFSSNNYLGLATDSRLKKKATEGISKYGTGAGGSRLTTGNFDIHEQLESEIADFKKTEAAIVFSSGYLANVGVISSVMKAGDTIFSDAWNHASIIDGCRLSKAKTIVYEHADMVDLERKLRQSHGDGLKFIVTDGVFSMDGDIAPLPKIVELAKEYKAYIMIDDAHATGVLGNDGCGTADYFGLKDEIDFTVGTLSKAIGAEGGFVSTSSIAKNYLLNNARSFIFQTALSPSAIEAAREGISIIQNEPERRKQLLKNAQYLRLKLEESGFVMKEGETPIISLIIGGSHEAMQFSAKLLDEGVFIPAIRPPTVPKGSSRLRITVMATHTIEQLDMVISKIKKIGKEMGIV
Sequence of KAPA syntase of E. coli (P12998 whole entry): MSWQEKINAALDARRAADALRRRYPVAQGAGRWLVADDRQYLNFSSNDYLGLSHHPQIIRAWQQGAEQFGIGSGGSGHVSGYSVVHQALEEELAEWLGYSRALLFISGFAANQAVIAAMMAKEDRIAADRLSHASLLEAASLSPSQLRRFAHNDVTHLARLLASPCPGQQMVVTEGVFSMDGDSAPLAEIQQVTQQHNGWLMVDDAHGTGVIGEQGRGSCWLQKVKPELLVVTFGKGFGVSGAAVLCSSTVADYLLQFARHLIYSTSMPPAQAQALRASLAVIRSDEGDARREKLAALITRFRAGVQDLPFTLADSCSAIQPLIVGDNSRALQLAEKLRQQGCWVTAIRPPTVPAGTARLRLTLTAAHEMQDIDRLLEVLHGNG

Compound	Individual plants grown up [1]	Km [2] [µM]	Km [3] [µM]	Km ([4]; read-out: Km value) [µM]	Vmax value [4]
O=C(O)CCCC[C@@H]1SC[C@@H]2NC(=O)N[C@@H]21 [biotin]	16				
CC(C)(COP(=O)(O)OP(=O)(O)OC[C@H]1O[C@@H](n2cnc3c(N)ncnc32)[C@H](O)[C@@H]1OP(=O)(O)O)[C@@H](O)C(=O)NCCC(=O)NCCSC(=O)CCCCCC(=O)O [pimeroyl CoA, pimeloyl CoA]		2500	500	0.54	7.93
